In patent US20060079461A1, “Treatment of multiple myeloma by inhibition of p38 MAP kinase” (Scios, Inc., priority 2003, published 2006):

Tests used:
[1] = system: VEGF; test: VEGF secretion from MM contact-activated BMSC; format: cell-based, human
Text: (§1) p38 MAPK controls secretion of these factors in-vitro in systems representing the BM milieu.

[2] = system: HSP-27; test: HSP-27 phosphorylation in MM cells (p38 MAPK activity); format: cell-based, human
Method: (§2) Total cell lysates are immunoprecipitated with anti-MAPKAPK-2 antibody and subjected to in vitro kinase assays using purified GST-Hsp27 as substrate. To examine Hsp27 phosphorylation in MM and transformed B cells, U266, IM9 and RPMI8226 cells are incubated either with DMSO or with 0.5 μM of a p38 MAPK inhibitor and cell lysates are immunoblotted with antibodies to phospho-Hsp27 (Ser 82) and Hsp27.
In additional experiments, the p38 MAPK inhibitors are tested for their ability to inhibit Hsp27 phosphorylation. U266, IM9 and RPMI8226 cells are incubated with 0.5 μM of the p38 MAPK inhibitor for 1 hour and Hsp27 proteins are immunoprecipitated with agarose-conjugated Hsp27 antibody, followed by immunoblotting with anti-phospho Hsp27 (Ser 78) antibody.
Specific antibodies to p38 MAP kinase are from Santa Cruz Biotechnology (Santa Cruz, Calif.). Antibodies to phospho-p38 MAP kinase (T180/Y182) and phospho-Hsp27 (S82) are from Cell Signaling (Beverly, Mass.). Antibodies to Hsp27 and phospho-Hsp27 (S78) are from Upstate Biotechnology (Lake Placid, N.Y.). Anti-MAPKAPK-2 is from StressGen (San Diego, Calif.) while anti-GAPDH is from Biogenesis Ltd. (Poole, UK).

[3] = system: HSP-27; test: HSP-27 phosphorylation in BMSC; format: cell-based, human
[4] = system: MKK3 and MKK6; test: Activation of p38 MAPK by upstream kinases
[5] = system: BMSC; test: BMSC viability, MTS assay; format: cell-based, human; conditions: tested up to 50-fold excess of active concentration
Method: Neither p38 MAPK inhibition nor high concentrations of p38 MAPK inhibitor (tested up to 50-fold excess of active concentration) affected BMSC viability (FIG. 4). Viability was measured using a standard enzymatic assay of respiratory activity, MTS (3-(4,5-dimethylthiazol-2-yl)-5-(3-carboxymethoxyphenyl)-2-(4-sulfophenyl)-2H-tetrazolium). Results obtained with the p38 MAPK inhibitor are in agreement with published results using a different p38α MAPK inhibitor.

[6] = system: MM cell lines (U266B, RPMI, ARH-77, and IM9); test: MM cell proliferation; format: cell-based, human; conditions: 72-hour exposure; each of four MM cell lines (U266B, RPMI, ARH-77, IM9)
[7] = system: TNF-α; test: LPS-induced TNF-α secretion in whole blood; format: cell-based, human
Method: Other in vitro assays can assess the production of TNF-α as a correlation to p38 MAP kinase activity. One such example is a Human Whole Blood Assay. In this assay, venous blood is collected from, e.g., healthy male volunteers into a heparinized syringe and is used within 2 hours of collection. Test compounds are dissolved in 100% DMSO and 1 μl aliquots of drug concentrations ranging from 0 to 1 mM are dispensed into quadruplicate wells of a 24-well microtiter plate (Nunclon Delta SI, Applied Scientific Co., San Francisco, Calif.). Whole blood is added at a volume of 1 ml/well and the mixture is incubated for 15 minutes with constant shaking (Titer Plate Shaker, Lab-Line Instruments, Inc., Melrose Park, Ill.) at a humidified atmosphere of 5% CO2 at 37° C. Whole blood is cultured either undiluted or at a final dilution of 1:10 with RPMI 1640 (Gibco 31800+NaHCO3, Life Technologies, Rockville, Md. and Scios, Inc., Sunnyvale, Calif.). At the end of the incubation period, 10 μl of LPS (E. coli 01111:B4, Sigma Chemical Co., St. Louis, Mo.) is added to each well to a final concentration of 1 or 0.1 μg/ml for undiluted or 1:10 diluted whole blood, respectively. The incubation is continued for an additional 2 hours. The reaction is stopped by placing the microtiter plates in an ice bath, and plasma or cell-free supernates are collected by centrifugation at 3000 rpm for 10 minutes at 4° C. […]

[8] = system: COX-2 mRNA; test: LPS-induced COX-2 mRNA; format: cell-based
[9] = system: PGE2; test: PGE2 levels in LPS-induced human whole blood; format: cell-based
[10] = biological target: T1, purified COX-2 enzyme (Homo sapiens, UniProt P35354); test: Purified COX-2 enzyme activity; format: biochemical
T1 sequence (P35354 18-604): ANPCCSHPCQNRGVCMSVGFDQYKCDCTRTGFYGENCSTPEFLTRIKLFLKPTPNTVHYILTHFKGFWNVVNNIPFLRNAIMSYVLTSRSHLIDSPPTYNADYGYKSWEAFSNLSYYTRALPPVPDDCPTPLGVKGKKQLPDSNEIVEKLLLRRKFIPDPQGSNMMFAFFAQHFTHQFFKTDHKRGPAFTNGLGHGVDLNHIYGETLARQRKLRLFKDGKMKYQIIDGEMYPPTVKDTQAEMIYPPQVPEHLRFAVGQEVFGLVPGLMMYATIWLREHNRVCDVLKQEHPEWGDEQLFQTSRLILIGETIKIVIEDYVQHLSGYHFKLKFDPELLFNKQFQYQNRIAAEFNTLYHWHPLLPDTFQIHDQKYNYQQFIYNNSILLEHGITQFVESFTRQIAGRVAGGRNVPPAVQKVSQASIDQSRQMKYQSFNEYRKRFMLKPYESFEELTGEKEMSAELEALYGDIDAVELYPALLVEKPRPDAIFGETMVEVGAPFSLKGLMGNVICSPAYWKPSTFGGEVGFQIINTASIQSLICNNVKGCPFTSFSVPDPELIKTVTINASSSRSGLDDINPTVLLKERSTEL

[11] = system: IL-1β; test: LPS-induced IL-1β release in human whole blood; format: cell-based; conditions: human whole blood (undiluted)
Text: IL-1β illustrates the importance of amplification loops in myeloma-induced cytokine stimulation. IL-1, plays a well-documented role in the induction of multiple cytokines in a “cytokine network” of feedback loops, including strong induction of IL-6. The ability of IL-1 to increase mRNA expression and induce secretion of the MM-relevant cytokines from MM/BMSC cultures is evidence of this role.

[12] = system: IL-11; test: IL-1 and TGFβ induction of IL-11 in BMSC cultures; format: cell-based, human; conditions: 100 nM
Text: as §1

[13] = system: IL-11; test: IL-1 and TGFβ induction of IL-11 in MM/BMSC cultures; format: cell-based, human; conditions: 100 nM
Text: as §1

[14] = system: MM cells; test: MM cell viability and proliferation with SN-50 co-exposure; format: cell-based; conditions: co-exposure with SN-50
Text: SN-50 is a cell-permeable specific inhibitor of NF-kappaB nuclear translocation and activity. Nuclear factor-kappaB has been reported to confer significant survival potential in a variety of tumors, including MM cells.

[15] = system: MAPKAPK-2; test: MAPKAPK-2 in vitro kinase assay with GST-Hsp27 substrate; format: cell-based, human
Method: as §2

[16] = system: Hsp27; test: Total Hsp27 levels in MM cells; format: cell-based, human; conditions: even after prolonged incubation
Method: as §2

[17] = system: human myeloma (RPMI8266) tumor; test: Beige-nude-xid mouse xenograft plasmacytoma model; format: in vivo
Text: Human-multiple myeloma (MM) is an incurable neoplasm of terminally differentiated B cells and MM disease progression is affected by immunoregulatory elements such as IL-6 and other cytokines. […]

[18] = system: multiple myeloma; test: Treatment of a patient with multiple myeloma; format: in vivo, human
Text: A patient is diagnosed with multiple myeloma. The patient presents with MM cells with rapid growth rates, which displace osteoblasts, and disrupting the balance of bone creation and destruction. A number of MM-related cytokines, such as IL-6, VEGF, IL-11, and PGE-2 are detectable. […] MM cell growth is inhibited and MM-related cytokine product is reduced.

[19] = in combination with an apoptosis promoting agent

## COC(=O)C(=O)c1cn(C(=O)c2ccc(Cl)cc2)c2cc(OC)c(C(=O)N3CCC(Cc4ccccc4)CC3)cc12 [Compound 4]
[1]
  VEGF secretion: inhibited

## C[C@@H]1CN(Cc2ccc(F)cc2)[C@@H](C)CN1C(=O)c1cc2c(C(=O)C(=O)N(C)C)cn(C)c2cc1Cl [Compound 57]
[2]; MM cells
  phosphorylation of HSP-27: blocked phosphorylation of HSP-27 completely
[2]; U266, IM9, RPMI8226, cell lysates or immunoprecipitation assays, 0.5 μM
  Hsp27 phosphorylation: inhibits
[2]; immunodetection of p38 MAPK kinase target HSP-27
  p38 MAPK activity: fully suppressed
[3]
  phosphorylation of HSP-27: blocked phosphorylation of HSP-27 completely
[4]
  direct activation of the p38 MAPK enzyme or activity of kinases upstream of p38 MAPK: not the direct activation of the p38 MAPK enzyme or the activity of kinases upstream of p38 MAPK
[5]
  BMSC viability: Neither p38α MAPK inhibition nor high concentrations of Compound 57 (tested up to 50-fold excess of active concentration) affected BMSC viability
[6]
  reduction in proliferation: about 20%
[7]
  LPS-induced TNF-α secretion: dose-dependent reduction
[8]
  LPS-induced COX-2 mRNA: inhibited
[9]
  PGE2 levels: reduced
[10]
  activity of the purified COX-2 enzyme: did not directly inhibit
[11]
  LPS-induced IL-1β release: dose-dependent reduction
[12]
  IL-1 and TGFβ induction of IL-11 at the mRNA and protein levels: blocked
[13]
  IL-1 and TGFβ induction of IL-11 at the mRNA and protein levels: blocked
[14]
  reduction of MM cell viability and proliferation caused by SN-50-induced NFκB inhibition: enhances the reduction of MM cell viability and proliferation
[15]
  activity of downstream substrate MAPKAPK-2: suppresses
[16]
  total Hsp27 levels: does not affect
[17]; at the end of dosing, versus vehicle
  tumor volume, histological assessment: significant reduction
[17]; histological assessment at the end of dosing
  number of neoformed microvessels: significant reduction
[17]; mouse, in vivo
  HSP27 expression in tumor cells: significantly reduces
  p38 expression in tumor cells: significantly reduces
[17]; palpable tumors (~200 mm^3), 90 mg/kg/bid oral gavage, 21 days
  tumor volume: significantly reduces
[17]; treatment initiated at pronounced tumor size (~800 mm^3)
  tumor volume: significant reduction
[18]; [19]
  MM cell growth: inhibited
  MM-related cytokine product: reduced
[18]; therapeutic amount, alone
  MM cell growth: inhibited
  MM-related cytokine product: reduced
